Tests used:
ABUTH (Velvetleaf) = assay: Preemergence herbicidal evaluation; type: in vivo, Abutilon theophrasti; conditions: rated 4-5 weeks after treatment
How it was run: (§1)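 Scores use a 0–9 visual scale covering stand, vigor, malformation, size and chlorosis relative to controls, rated four to five weeks after treatment. Before emergence, soil-planted seeds were sprayed with compound in aqueous acetone at roughly 0.0156–0.500 kg/ha and held in the greenhouse.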

SETVI (Foxtail, Green) [1] = assay: Preemergence herbicidal evaluation; type: in vivo, Setaria viridis; conditions: rated 4-5 weeks after treatment
How it was run: as §1

GALAP (Galium) = assay: Postemergence herbicidal evaluation; type: in vivo, Galium aparine
How it was run: (§2)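 Visual 0-9 injury score (stand, vigor, malformation, size, chlorosis, appearance vs untreated) taken four to five weeks post-spray, averaged across repeat tests. Test plants about two weeks old; foliar spray of acetone/water (1:1) with 0.5% surfactant delivering ~0.0156-0.500 kg active/ha.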

CYPIR (Rice Flatsedge) = assay: Preemergence weed control under flooded paddy conditions; type: in vivo, Cyperus iria; conditions: rated 3-4 weeks after treatment
How it was run: (§3)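 Visual injury scored 0-9 against control three to four weeks post-treatment, greenhouse-grown. Application: acetone/water (50/50) solutions dosed directly into flood water (1.5-3 cm over silt loam, planted top 0.5 cm), roughly 0.0313 to 0.500 kg/ha active ingredient.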

SETVI (Foxtail, Green) [2] = assay: Postemergence herbicidal evaluation; type: in vivo, Setaria viridis
How it was run: as §2

[3] = tested on: IPOHE (Morningglory, Ivyleaf); assay: Preemergence herbicidal evaluation; type: in vivo, Ipomoea hederacea; conditions: rated 4-5 weeks after treatment
How it was run: as §1

[4] = tested on: SAGPY (Arrowhead (Pygmaea)); assay: Postemergence weed control under flooded paddy conditions; type: in vivo, Sagittaria pygmaea; conditions: postemergence weeds, 3-4 weeks after treatment
How it was run: (§4)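 Flood-water application, about 0.0313–0.500 kg/ha a.i. in aqueous/acetone 50/50 v/v; water depth 1.5–3 cm throughout. Weeds 3–5 cm, rice 1.5–2.5 leaf. Greenhouse; 0–9 visual rating vs control at 3–4 wk.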

ECHCG (Barnyardgrass) = assay: Preemergence herbicidal evaluation; type: in vivo, Echinochloa crus-galli; conditions: rated 4-5 weeks after treatment
How it was run: as §1

MOOVA (Monochoria) = assay: Preemergence weed control under flooded paddy conditions; type: in vivo, Monochoria vaginalis; conditions: rated 3-4 weeks after treatment
How it was run: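 Seeds or propagules sown in silt loam kept flooded 1.5-3 cm; compounds in 50/50 acetone/water pipetted into flood water at about 0.0313 to 0.500 kg/ha. Greenhouse; visual 0-9 rating versus untreated control 3-4 weeks after treatment.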

[5] = tested on: IPOHE (Morningglory, Ivyleaf); assay: Postemergence herbicidal evaluation; type: in vivo, Ipomoea hederacea
How it was run: as §2

[6] = tested on: ECHORC (Watergrass (Calif.)); assay: Postemergence weed control under flooded paddy conditions; type: in vivo, Echinochloa oryzoides; conditions: postemergence weeds, 3-4 weeks after treatment
How it was run: as §4

ZEAMX (Corn, Field) = assay: Preemergence herbicidal evaluation; type: in vivo, Zea mays; conditions: rated 4-5 weeks after treatment
How it was run: as §1

[7] = tested on: TRZAWR (Wheat, Winter, cv Riband); assay: Postemergence herbicidal evaluation; type: in vivo, Triticum aestivum
How it was run: as §2

[8] = tested on: ECHORC (Watergrass (Calif.)); assay: Preemergence weed control under flooded paddy conditions; type: in vivo, Echinochloa oryzoides; conditions: rated 3-4 weeks after treatment
How it was run: as §3

SMILES: CCOC(=O)CN1C(=O)CS(=O)(=O)C1=Nc1cc(-n2c(=O)cc(C(F)(F)F)n(C)c2=O)c(F)cc1Cl [Compound 46, 2-{{2-Chloro-5-[3,6-dihydro-3-methyl-2,6-dioxo-4-(trifluoromethyl)-1(2H)-pyrimidinyl]-4-fluoro-phenyl}imino}-4-oxo-3-thiazolidineacetic acid, ethyl ester, 1,1-dioxide]
- Preemergence herbicidal rating ABUTH (ABUTH (Velvetleaf); rate 0.1250 kg/ha): 9.0
- Preemergence herbicidal rating ABUTH (ABUTH (Velvetleaf); rate 0.2500 kg/ha): 9.0
- Preemergence herbicidal rating SETVI (SETVI (Foxtail, Green) [1]; rate 0.1250 kg/ha): 0.0
- Preemergence herbicidal rating SETVI (SETVI (Foxtail, Green) [1]; rate 0.2500 kg/ha): 0.0
- Postemergence herbicidal rating GALAP (GALAP (Galium); Rate 0.0313 kg/ha): 0.0
- Postemergence herbicidal rating GALAP (GALAP (Galium); Rate 0.0625 kg/ha): 0.0
- Herbicidal rating CYPIR (CYPIR (Rice Flatsedge); 0.0313 kg/ha): 0.0
- Herbicidal rating CYPIR (CYPIR (Rice Flatsedge); 0.0625 kg/ha): 0.0
- Herbicidal rating CYPIR (CYPIR (Rice Flatsedge); 0.1250 kg/ha): 0.0
- Herbicidal rating CYPIR (CYPIR (Rice Flatsedge); 0.2500 kg/ha): 0.0
- Postemergence herbicidal rating SETVI (SETVI (Foxtail, Green) [2]; Rate 0.0313 kg/ha): 0.0
- Postemergence herbicidal rating SETVI (SETVI (Foxtail, Green) [2]; Rate 0.0625 kg/ha): 0.0
- Preemergence herbicidal rating IPOHE ([3]; rate 0.1250 kg/ha): 0.0
- Preemergence herbicidal rating IPOHE ([3]; rate 0.2500 kg/ha): 1.0
- Herbicidal rating SAGPY ([4]; rate 0.0313 kg/ha): 0.0
- Herbicidal rating SAGPY ([4]; rate 0.0625 kg/ha): 0.0
- Herbicidal rating SAGPY ([4]; rate 0.1250 kg/ha): 0.0
- Herbicidal rating SAGPY ([4]; rate 0.2500 kg/ha): 3.0
- Preemergence herbicidal rating ECHCG (ECHCG (Barnyardgrass); rate 0.1250 kg/ha): 0.0
- Preemergence herbicidal rating ECHCG (ECHCG (Barnyardgrass); rate 0.2500 kg/ha): 0.0
- Herbicidal rating MOOVA (MOOVA (Monochoria); 0.0313 kg/ha): 3.0
- Herbicidal rating MOOVA (MOOVA (Monochoria); 0.0625 kg/ha): 4.0
- Herbicidal rating MOOVA (MOOVA (Monochoria); 0.1250 kg/ha): 6.0
- Herbicidal rating MOOVA (MOOVA (Monochoria); 0.2500 kg/ha): 7.0
- Postemergence herbicidal rating IPOHE ([5]; Rate 0.0313 kg/ha): 3.0
- Postemergence herbicidal rating IPOHE ([5]; Rate 0.0625 kg/ha): 9.0
- Herbicidal rating ECHORC ([6]; rate 0.0313 kg/ha): 0.0
- Herbicidal rating ECHORC ([6]; rate 0.0625 kg/ha): 0.0
- Herbicidal rating ECHORC ([6]; rate 0.1250 kg/ha): 0.0
- Herbicidal rating ECHORC ([6]; rate 0.2500 kg/ha): 4.0
- Preemergence herbicidal rating ZEAMX (ZEAMX (Corn, Field); rate 0.1250 kg/ha): 0.0
- Preemergence herbicidal rating ZEAMX (ZEAMX (Corn, Field); rate 0.2500 kg/ha): 1.0
- Postemergence herbicidal rating TRZAWR ([7]; Rate 0.0313 kg/ha): 2.0
- Postemergence herbicidal rating TRZAWR ([7]; Rate 0.0625 kg/ha): 3.0
- Herbicidal rating ECHORC ([8]; 0.0313 kg/ha): 0.0
- Herbicidal rating ECHORC ([8]; 0.0625 kg/ha): 0.0
- Herbicidal rating ECHORC ([8]; 0.1250 kg/ha): 0.0
- Herbicidal rating ECHORC ([8]; 0.2500 kg/ha): 4.0

SMILES: COC(=O)CCCN1C(=O)CSC1=Nc1cc(-n2c(=O)cc(C(F)(F)F)n(C)c2=O)c(F)cc1Cl [Compound 29, Methyl 2-{{2-chloro-5-[3,6-dihydro-3-methyl-2,6-dioxo-4-(trifluoromethyl)-1(2H)-pyrimidinyl]-4-fluorophenyl}imino}-4-oxo-3-thiazolidinebutyrate]
- Preemergence herbicidal rating ABUTH (ABUTH (Velvetleaf); rate 0.0625 kg/ha): 9.0
- Preemergence herbicidal rating ABUTH (ABUTH (Velvetleaf); rate 0.1250 kg/ha): 9.0
- Preemergence herbicidal rating ABUTH (ABUTH (Velvetleaf); rate 0.2500 kg/ha): 9.0
- Preemergence herbicidal rating SETVI (SETVI (Foxtail, Green) [1]; rate 0.0625 kg/ha): 0.0
- Preemergence herbicidal rating SETVI (SETVI (Foxtail, Green) [1]; rate 0.1250 kg/ha): 0.0
- Preemergence herbicidal rating SETVI (SETVI (Foxtail, Green) [1]; rate 0.2500 kg/ha): 9.0
- Postemergence herbicidal rating GALAP (GALAP (Galium); Rate 0.0158 kg/ha): 1.0
- Postemergence herbicidal rating GALAP (GALAP (Galium); Rate 0.0315 kg/ha): 1.0
- Postemergence herbicidal rating GALAP (GALAP (Galium); Rate 0.0630 kg/ha): 7.0
- Herbicidal rating CYPIR (CYPIR (Rice Flatsedge); 0.0313 kg/ha): 0.0
- Herbicidal rating CYPIR (CYPIR (Rice Flatsedge); 0.0625 kg/ha): 0.0
- Herbicidal rating CYPIR (CYPIR (Rice Flatsedge); 0.1250 kg/ha): 0.0
- Herbicidal rating CYPIR (CYPIR (Rice Flatsedge); 0.2500 kg/ha): 0.0
- Postemergence herbicidal rating SETVI (SETVI (Foxtail, Green) [2]; Rate 0.0158 kg/ha): 0.0
- Postemergence herbicidal rating SETVI (SETVI (Foxtail, Green) [2]; Rate 0.0315 kg/ha): 1.0
- Postemergence herbicidal rating SETVI (SETVI (Foxtail, Green) [2]; Rate 0.0630 kg/ha): 4.0
- Preemergence herbicidal rating IPOHE ([3]; rate 0.0625 kg/ha): 0.0
- Preemergence herbicidal rating IPOHE ([3]; rate 0.1250 kg/ha): 0.0
- Preemergence herbicidal rating IPOHE ([3]; rate 0.2500 kg/ha): 4.0
- Herbicidal rating SAGPY ([4]; rate 0.0313 kg/ha): 0.0
- Herbicidal rating SAGPY ([4]; rate 0.0625 kg/ha): 0.0
- Herbicidal rating SAGPY ([4]; rate 0.1250 kg/ha): 0.0
- Herbicidal rating SAGPY ([4]; rate 0.2500 kg/ha): 0.0
- Preemergence herbicidal rating ECHCG (ECHCG (Barnyardgrass); rate 0.0625 kg/ha): 0.0
- Preemergence herbicidal rating ECHCG (ECHCG (Barnyardgrass); rate 0.1250 kg/ha): 0.0
- Preemergence herbicidal rating ECHCG (ECHCG (Barnyardgrass); rate 0.2500 kg/ha): 0.0
- Herbicidal rating MOOVA (MOOVA (Monochoria); 0.0313 kg/ha): 0.0
- Herbicidal rating MOOVA (MOOVA (Monochoria); 0.0625 kg/ha): 0.0
- Herbicidal rating MOOVA (MOOVA (Monochoria); 0.1250 kg/ha): 0.0
- Herbicidal rating MOOVA (MOOVA (Monochoria); 0.2500 kg/ha): 0.0
- Postemergence herbicidal rating IPOHE ([5]; Rate 0.0158 kg/ha): 3.0
- Postemergence herbicidal rating IPOHE ([5]; Rate 0.0315 kg/ha): 9.0
- Postemergence herbicidal rating IPOHE ([5]; Rate 0.0630 kg/ha): 9.0
- Herbicidal rating ECHORC ([6]; rate 0.0313 kg/ha): 4.0
- Herbicidal rating ECHORC ([6]; rate 0.0625 kg/ha): 7.0
- Herbicidal rating ECHORC ([6]; rate 0.1250 kg/ha): 7.0
- Herbicidal rating ECHORC ([6]; rate 0.2500 kg/ha): 7.0
- Preemergence herbicidal rating ZEAMX (ZEAMX (Corn, Field); rate 0.0625 kg/ha): 0.0
- Preemergence herbicidal rating ZEAMX (ZEAMX (Corn, Field); rate 0.1250 kg/ha): 0.0
- Preemergence herbicidal rating ZEAMX (ZEAMX (Corn, Field); rate 0.2500 kg/ha): 6.0
- Postemergence herbicidal rating TRZAWR ([7]; Rate 0.0158 kg/ha): 4.5
- Postemergence herbicidal rating TRZAWR ([7]; Rate 0.0315 kg/ha): 5.0
- Postemergence herbicidal rating TRZAWR ([7]; Rate 0.0630 kg/ha): 5.5
- Herbicidal rating ECHORC ([8]; 0.0313 kg/ha): 4.0
- Herbicidal rating ECHORC ([8]; 0.0625 kg/ha): 7.0
- Herbicidal rating ECHORC ([8]; 0.1250 kg/ha): 7.0
- Herbicidal rating ECHORC ([8]; 0.2500 kg/ha): 7.0

— patent US20020137929A1, “1 - (3-heterocyclylphenyl) isothiourea, -isourea, -guanidine and -amidine herbicidal agents” (Intellectual Property Department, BASF Aktiengesellschaft, priority 1998, published 2002)
